The results in this text go back to patent US7727553B2, “Oral preparations with favorable disintegration characteristics” (Dainippon Sumitomo Pharma Co., Ltd., priority 2000, dated 2010).

The data set in a line: physchem. To be noted: for solubility at 30 min: 22.5 °C, thermodynamic from solid. The protocol: According to the method disclosed in the Pharmacopoeia of Japan, the solubility (μg/ml) of Compound 1 was measured when treated for 30 minutes under the following conditions. • (1) Conditions for measurement of solubility:
Solvent: Diluted McIlvaine buffer

As a reminder, the solubility is the concentration that dissolves in the medium under given conditions. The low end stands for little dissolved substance, the high end for much dissolved substance.

For `Cl.O=C1[C@@H]2[C@H]3CC[C@H](C3)[C@@H]2C(=O)N1C[C@@H]1CCCC[C@H]1CN1CCN(c2nsc3ccccc23)CC1` [Compound 1, N-[4-[4-(1,2-benzisothiazol-3-yl)-1-piperazinyl]-(2R, 3R)-2,3-tetramethylenebutyl]-(1′R, 2′S, 3′R, 4′S)-2,3-bicyclo[2.2.1]heptanedicarboximide hydrochloride], the “solubility of Compound 1 (in words)” value is given as “quite low”. The solubility at 30 min (pH 3, aqueous buffer) was more than 20 µg/mL. This compound had a solubility at 30 min (pH 4, aqueous buffer) of 8.2 µg/mL. Also, the solubility at 30 min (pH 5, aqueous buffer) was 0.7 µg/mL.
